{"source": "paper PMC3180442", "about": "(PLoS ONE, 2011)", "key": {"RipA [1]": {"target": "T1, RipA (Yersinia pestis, UniProt Q9ZC36)", "settings": "10 mM acid vs 10 mM acetate, butyryl-CoA as CoA donor, 100 mM Tris pH 7.0, room temperature; competing acceptor acid"}, "RipA [2]": {"target": "T1, RipA", "settings": "5 µM RipA, 20 µM ligand, 100 mM potassium phosphate pH 7.4; Tm with ligand, apo RipA 45.8 °C"}, "RipA [3]": {"target": "T1, RipA", "settings": "active site near Glu249; crystals grown with succinyl-CoA and tacsimate pH 5.0; acetate is the CoA acceptor in the activity assay"}, "[4]": {"target": "Yersinia pestis RipA (Yersinia pestis)", "test": "crystal structure"}, "[5]": {"target": "Yersinia pestis RipA (Yersinia pestis)", "test": "SEC"}, "[6]": {"target": "Yersinia pestis RipA (Yersinia pestis)", "test": "SAXS"}}, "data": [{"compound": "O=C(O)CCCO", "note": "[4-hydroxybutyrate]", "values": [{"measurement": "% decrease in the rate of acetyl-CoA formation", "setting": "RipA [1]", "result": 10, "unit": "%"}]}, {"compound": "CC(=O)CC(=O)SCCNC(=O)CCNC(=O)[C@H](O)C(C)(C)COP(=O)(O)OP(=O)(O)OC[C@H]1O[C@@H](n2cnc3c(N)ncnc32)[C@H](O)[C@@H]1OP(=O)(O)O", "note": "[Aceto-acetyl-CoA]", "values": [{"measurement": "Tm (°C)", "setting": "RipA [2]", "result": "48.3±0.01", "unit": "°C"}]}, {"compound": "CC(=O)SCCNC(=O)CCNC(=O)[C@H](O)C(C)(C)COP(=O)(O)OP(=O)(O)OC[C@H]1O[C@@H](n2cnc3c(N)ncnc32)[C@H](O)[C@@H]1OP(=O)(O)O", "note": "[Acetyl-CoA]", "values": [{"measurement": "Tm (°C)", "setting": "RipA [2]", "result": "52.8±0.03", "unit": "°C"}]}, {"compound": "CCCC(=O)SCCNC(=O)CCNC(=O)[C@H](O)C(C)(C)COP(=O)(O)OP(=O)(O)OC[C@H]1O[C@@H](n2cnc3c(N)ncnc32)[C@H](O)[C@@H]1OP(=O)(O)O", "note": "[Butyryl-CoA]", "values": [{"measurement": "Tm (°C)", "setting": "RipA [2]", "result": "53.4±0.05", "unit": "°C"}]}, {"compound": "C/C=C/C(=O)SCCNC(=O)CCNC(=O)[C@H](O)C(C)(C)COP(=O)(O)OP(=O)(O)OC[C@H]1O[C@@H](n2cnc3c(N)ncnc32)[C@H](O)[C@@H]1OP(=O)(O)O", "note": "[Crotonyl-CoA]", "values": [{"measurement": "Tm (°C)", "setting": "RipA [2]", "result": "47.9±0.54", "unit": "°C"}]}, {"compound": "CCC(=O)SCCNC(=O)CCNC(=O)[C@H](O)C(C)(C)COP(=O)(O)OP(=O)(O)OC[C@H]1O[C@@H](n2cnc3c(N)ncnc32)[C@H](O)[C@@H]1OP(=O)(O)O", "note": "[Propionyl-CoA]", "values": [{"measurement": "Tm (°C)", "setting": "RipA [2]", "result": "53.5±0.06", "unit": "°C"}]}, {"compound": "CC(C)(COP(=O)(O)OP(=O)(O)OC[C@H]1O[C@@H](n2cnc3c(N)ncnc32)[C@H](O)[C@@H]1OP(=O)(O)O)[C@@H](O)C(=O)NCCC(=O)NCCSC(=O)CCC(=O)O", "note": "[Succinyl-CoA]", "values": [{"measurement": "Tm (°C)", "setting": "RipA [2]", "result": "52.8±0.28", "unit": "°C"}]}, {"compound": "CC(=O)O", "note": "[acetate]", "values": [{"measurement": "X-ray crystal structure, 1.9 Å", "setting": "RipA [3]", "result": "electron density near the active site glutamate suggests an acetate molecule is located within"}]}, {"compound": "CCCC(=O)O", "note": "[butyrate]", "values": [{"measurement": "% decrease in the rate of acetyl-CoA formation", "setting": "RipA [1]", "result": 80, "unit": "%"}]}, {"compound": "CCC(=O)O", "note": "[propionate]", "values": [{"measurement": "% decrease in the rate of acetyl-CoA formation", "setting": "RipA [1]", "result": 80, "unit": "%"}]}, {"compound": "Yersinia pestis RipA (enzyme)", "values": [{"measurement": "stoichiometry N", "setting": "[4]", "result": 4}, {"measurement": "stoichiometry N", "setting": "[5]", "result": 4}, {"measurement": "stoichiometry N", "setting": "[6]", "result": 4}]}]}
